Measured values: patent EP0185066B1, “SULPHUR-CONTAINING DERIVATIVES OF PARA-METHOXYCINNAMIC ACID, PRODUCTION PROCESSES THEREOF, DERMO-PHARMACEUTICAL AND COSMETIC COMPOSITIONS CONTAINING THEM AND APPLICATIONS” (UNIVERSITE LOUIS PASTEUR (STRASBOURG I), priority 1984, dated 1986)

Experiments:
[1] = UV absorption spectrum (sunscreen filtering range); format: physicochemical
Excerpt: Les composés de formule III conformes à la présente invention possèdent des propriétés de filtres solaires intéressants. Ils présentent un maximum d'efficacité tant au niveau de leur capacité d'absorption ultra-violette qu'à celui de leur fixation sur la peau. Leur spectre d'absorption se situe dans la zone des U.V.B. érythématogènes avec un maximum vers 310 nm; ils laissent passer les rayons U.V.A.

[2] = parameters: species or system lapin; settings: in vivo
Excerpt: Une étude in vivo de la fixation des filtres soufrés de formules III et Il à la couche cornée a été réalisée sur la peau de lapin. Aucune trace d'acide para-méthoxycinnamique, métabolite de tout filtre solaire de formules III ou II, n'a pu être décelée dans le sang des lapins traités. La méthode d'analyse par chromatographie en phase gazeuse couplée à la spectrométrie de masse permet de déceler des concentrations de l'ordre de 10 pg. L'on peut donc en conclure que ces composés ne pénètrent pas dans le torrent circulatoire, contrairement au para-méthoxycinnamate d'éthyle-2-hexyle évoqué dans le préambule ainsi que les produits obtenus à partir du Brevet Pierre FABRE.
Le composé présentant des propriétés de filtre solaire, conforme à la présente invention est incorporé à la concentration 5% dans une émulsion qui peut avoir par exemple la composition suivante:
Méthode de recherche de l'acide para-méthoxycinnamique (métabolite) dans le sang de lapin après application des filtres solaires soufrés conformes à l'invention incorporé dans l'émulsion précédente. • - Conditions d'application et préjèvement plasmatiques
2 g d'émulsion à tester sont appliqués sur la peau épilée du lapin. […] Les mesures sont effectuées sur la fraction plasmatique. - Déterminations quantitatives en CPG(SM […]

Row | Structure (SMILES) | maximum d'absorption U.V. [1] | concentration d'acide para-méthoxycinnamique retrouvé dans le sang [2]
1 | COc1ccc(/C=C/C(=O)OCCS)cc1 [II, para-méthoxycinnamatede thio-2-éthanol] | 310 nm | –
2 | COc1ccc(/C=C/C(=O)OCCSSCC(N)C(=O)O)cc1 (stereo not drawn) [III (n = 2, m = 1, R2 = H et R1 = OH)] | 310 nm | –
3 | CCCCC(CC)COC(=O)C=Cc1ccc(OC)cc1 (stereo not drawn) [PMCEH, para-méthoxycinnamate d'éthyle-2 hexyle] | – | comprise entre le ng et plusieurs µg
